What follows are compounds tested against T1, recombinant human 5-HT5A receptor (Homo sapiens, UniProt P47898) (assay: [3H]LSD radioligand binding assay). Conditions: [3H]LSD (approximately 1 nM); membranes from transiently expressed 5-HT5A receptors in HEK-EBNA cells; Ki from IC50 by Cheng-Prussoff equation.
T1 construct: expressed in transfected cells; host or cells: HEK-EBNA (Human Embryonic Kidney-EBNA) cells, transient cDNA expression; membranes
Experimental: A [^3H]LSD radioligand binding assay was used to determine the affinity of the compounds for the recombinant human 5-HT5A receptor, in membranes from transiently (cDNA) expressed 5-HT5A receptors in Human Embryonic Kidney-EBNA (HEK-EBNA) cells. Assay buffer consisted of Tris (50 mM) buffer containing 1 mM EGTA, 10 mM MgCl2 (pH 7.4) and 10 μM pargyline. The binding assay was carried out in 96-well-plates in the presence of [^3H]LSD (approximately 1 nM), approximately 2 μg/well of membrane protein, and 0.5 mg of Ysi-poly-1-lysine SPA beads in a final volume of 200 μl of buffer. Non-specific binding was defined using methiothepin 2 μM. Compounds were tested at 10 concentrations. All assays were conducted in duplicate and repeated at least two times. Assay plates were incubated for 120 min at room temperature before centrifugation. Bound ligand was determined using a Packard Topcount scintillation counter. IC50 values were calculated using a non-linear curve fitting program and Ki values calculated using the Cheng-Prussoff equation.

T1 sequence (P47898 whole entry): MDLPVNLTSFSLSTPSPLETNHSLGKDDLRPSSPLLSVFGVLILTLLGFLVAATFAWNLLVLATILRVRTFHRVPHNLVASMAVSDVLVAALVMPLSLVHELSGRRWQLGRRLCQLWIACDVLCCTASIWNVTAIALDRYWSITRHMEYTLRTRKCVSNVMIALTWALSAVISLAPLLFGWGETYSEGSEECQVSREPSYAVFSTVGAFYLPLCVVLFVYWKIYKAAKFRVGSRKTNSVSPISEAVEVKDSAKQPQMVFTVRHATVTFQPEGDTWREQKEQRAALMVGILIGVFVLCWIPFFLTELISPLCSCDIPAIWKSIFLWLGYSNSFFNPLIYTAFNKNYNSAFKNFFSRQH

SMILES | Ki [nM]
COc1cccc2c1C(Nc1ccc3cc(NC(=O)NC(C)C)ccc3n1)CC2 (racemic) [Example 12, rac-1-Isopropyl-3-[2-(7-methoxy-indan-1-ylamino)-quinolin-6-yl]-urea] | 1.5
COc1cccc2c1C(Nc1ccc3cc(NC(=O)NC(C)C)ccc3n1)CCC2 (racemic) [Example 15, rac-1-Isopropyl-3-[2-(8-methoxy-1,2,3,4-tetrahydro-naphthalen-1-ylamino)-quinolin-6-yl]-urea] | 7.7
CN1CCC(NC(=O)Nc2ccc3nc(NC4COc5ccccc54)ccc3c2)CC1 (racemic) [Example 35, rac-1-[2-(2,3-Dihydro-benzofuran-3-ylamino)-quinolin-6-yl]-3-(1-methyl-piperidin-4-yl)-urea] | 9.6
COc1cccc2c1C(Nc1ccc3cc(NC(=O)NC4CCN(C)CC4)ccc3n1)CC2 (racemic) [Example 40, rac-1-[2-(7-Methoxy-indan-1-ylamino)-quinolin-6-yl]-3-(1-methyl-piperidin-4-yl)-urea] | 2.2
COc1cccc2c1C(Nc1ccc3cc(NC(=O)NC4CCN(C(C)C)CC4)ccc3n1)CC2 (racemic) [Example 44, rac-1-(1-Isopropyl-piperidin-4-yl)-3-[2-(7-methoxy-indan-1-ylamino)-quinolin-6-yl]-urea] | 3
COCCN1CCC(NC(=O)Nc2ccc3nc(NC4CCc5cccc(OC)c54)ccc3c2)CC1 (racemic) [Example 45, rac-1-[1-(2-Methoxy-ethyl)-piperidin-4-yl]-3-[2-(7-methoxy-indan-1-ylamino)-quinolin-6-yl]-urea] | 3
COc1cccc2c1C(Nc1ccc3cc(NC(=O)NC4CCN(CCF)CC4)ccc3n1)CC2 (racemic) [Example 46, rac-1-[1-(2-Fluoro-ethyl)-piperidin-4-yl]-3-[2-(7-methoxy-indan-1-ylamino)-quinolin-6-yl]-urea] | 2.7
COc1cccc2c1C(Nc1ccc3cc(NC(=O)NC4CCN(CCC(F)(F)F)CC4)ccc3n1)CC2 (racemic) [Example 47, rac-1-[2-(7-Methoxy-indan-1-ylamino)-quinolin-6-yl]-3-[1-(3,3,3-trifluoro-propyl)-piperidin-4-yl]-urea] | 3
COc1cccc2c1C(Nc1ccc3cc(NC(=O)NC4CC5CCCC(C4)N5C)ccc3n1)CC2 (racemic) [Example 50, rac-1-[2-(7-Methoxy-indan-1-ylamino)-quinolin-6-yl]-(9-methyl-9-aza-bicyclo[3.3.1]non-3-yl)-urea] | 5.2
COc1cccc2c1C(Nc1ccc3cc(NC(=O)NC4CCN(CCSC)CC4)ccc3n1)CC2 (racemic) [Example 51, rac-1-[2-(7-Methoxy-indan-1-ylamino)-quinolin-6-yl]-3-[1-(2-methylsulfanyl-ethyl)-piperidin-4-yl]-urea] | 3.9
COc1cccc2c1C(Nc1ccc3cc(NC(=O)NC4CCN(C(=O)CC(F)(F)F)CC4)ccc3n1)CC2 (racemic) [Example 52, rac-1-[2-(7-Methoxy-indan-1-ylamino)-quinolin-6-yl]-3-[1-(3,3,3-trifluoro-propionyl)-piperidin-4-yl]-urea] | 7.5
COc1cccc2c1C(Nc1ccc3cc(NC(=O)NC4CCN(C5CC5)CC4)ccc3n1)CC2 (racemic) [Example 53, rac-1-(1-Cyclopropyl-piperidin-4-yl)-3-[2-(7-methoxy-indan-1-ylamino)-quinolin-6-yl]-urea] | 3.1
COc1cccc2c1C(Nc1ccc3cc(NC(=O)NC4CCN(C5CC5)CC4)ccc3n1)CCC2 (racemic) [Example 55, rac-1-(1-Cyclopropyl-piperidin-4-yl)-3-[2-(8-methoxy-1,2,3,4-tetrahydro-naphthalen-1-ylamino)-quinolin-6-yl]-urea] | 9.7
COc1cccc2c1C(Nc1ccc3cc(NC(=O)NC4CCN(C)CC4)ccc3n1)CCC2 (racemic) [Example 57, rac-1-[2-(8-Methoxy-1,2,3,4-tetrahydro-naphthalen-1-ylamino)-quinolin-6-yl]-3-(1-methyl-piperidin-4-yl)-urea] | 5.8
COCCN1CCC(NC(=O)Nc2ccc3nc(NC4CCCc5cccc(OC)c54)ccc3c2)CC1 (racemic) [Example 58, rac-1-[1-(2-Methoxy-ethyl)-piperidin-4-yl]-3-[2-(8-methoxy-1,2,3,4-tetrahydro-naphthalen-1-ylamino)-quinolin-6-yl]-urea] | 5.3
COc1cccc2c1C(Nc1ccc3cc(NC(=O)NC4CCN(CCF)CC4)ccc3n1)CCC2 (racemic) [Example 59, rac-1-[1-(2-Fluoro-ethyl)-piperidin-4-yl]-3-[2-(8-methoxy-1,2,3,4-tetrahydro-naphthalen-1-ylamino)-quinolin-6-yl]-urea] | 5.9
COc1cccc2c1C(Nc1ccc3cc(NS(=O)(=O)N(C)C)ccc3n1)CC2 (racemic) [Example 68, rac-N′-{2-[(7-methoxy-2,3-dihydro-1H-inden-1-yl)amino]quinolin-6-yl}-N,N-dimethylsulfamide] | 2.5

SMILES | Ki [nM]
COc1ccc(C)c2c1C(Nc1ccc3cc(NC(=O)NC(C)C)ccc3n1)CC2 (racemic) [Example 93, rac-1-Isopropyl-3-[2-(7-methoxy-4-methyl-indan-1-ylamino)-quinolin-6-yl]-urea] | 8.7
CC(C)NC(=O)Nc1ccc2nc(NC3CCc4cc(F)ccc43)ccc2c1 (racemic) [Example 107, rac-1-[2-(5-Fluoro-indan-1-ylamino)-quinolin-6-yl]-3-isopropyl-urea] | 4.4
CC(C)N1CCC(NC(=O)Nc2ccc3nc(NC4CCc5cc(F)ccc54)ccc3c2)CC1 (racemic) [Example 115, rac-1-[2-(5-Fluoro-indan-1-ylamino)-quinolin-6-yl]-3-(1-isopropyl-piperidin-4-yl)-urea] | 4
COc1cc(C)cc2c1C(Nc1ccc3cc(NC(=O)NC(C)C)ccc3n1)CC2 (racemic) [Example 130, rac-1-Isopropyl-3-[2-(7-methoxy-5-methyl-indan-1-ylamino)-quinolin-6-yl]-urea] | 3.4
COc1cc(C)cc2c1C(Nc1ccc3cc(NC(=O)NC4CCN(C)CC4)ccc3n1)CC2 (racemic) [Example 131, rac-1-[2-(7-Methoxy-5-methyl-indan-1-ylamino)-quinolin-6-yl]-3-(1-methyl-piperidin-4-yl)-urea] | 2.9
COc1cccc2c1C(Nc1ccc3cc(NC(=O)CN4CCN(C)CC4)ccc3n1)CC2 (racemic) [Example 139, rac-N-[2-(7-Methoxy-indan-1-ylamino)-quinolin-6-yl]-2-(4-methyl-piperazin-1-yl)-acetamide] | 4.4
COc1cccc2c1C(Nc1ccc3cc(NC(=O)C4CC4)ccc3n1)CC2 (racemic) [Example 140, rac-Cyclopropanecarboxylic acid [2-(7-methoxy-indan-1-ylamino)-quinolin-6-yl]-amide] | 2.2
O=C(Nc1ccc2nc(NC3CCc4cc(F)ccc43)ccc2c1)C1CC1 (racemic) [Example 141, rac-Cyclopropanecarboxylic acid [2-(5-fluoro-indan-1-ylamino)-quinolin-6-yl]-amide] | 8.6
CC(C)NC(=O)Nc1ccc2nc(NC3CCc4cccc(F)c43)ccc2c1 (racemic) [Example 146, rac-1-[2-(7-Fluoro-indan-1-ylamino)-quinolin-6-yl]-3-isopropyl-urea] | 6.1
CC(C)N1CCC(NC(=O)Nc2ccc3nc(NC4CCc5ccc(F)cc54)ccc3c2)CC1 (racemic) [Example 155, rac-1-[2-(6-Fluoro-indan-1-ylamino)-quinolin-6-yl]-3-(1-isopropyl-piperidin-4-yl)-urea] | 6.3
CC(C)N1CCC(NC(=O)Nc2ccc3nc(NC4CCc5cccc(F)c54)ccc3c2)CC1 (racemic) [Example 156, rac-1-[2-(7-Fluoro-indan-1-ylamino)-quinolin-6-yl]-3-(1-isopropyl-piperidin-4-yl)-urea] | 3.8
O=C(Nc1ccc2nc(NC3CCc4cccc(F)c43)ccc2c1)C1CC1 (racemic) [Example 162, rac-Cyclopropanecarboxylic acid [2-(7-fluoro-indan-1-ylamino)-quinolin-6-yl]-amide] | 8.3
COc1cccc2c1C(Nc1ccc3cc(N)ccc3n1)CC2 (racemic) [Example 172, rac-N^2-(7-Methoxy-indan-1-yl)-quinoline-2,6-diamine] | 3.3
COc1cccc2c1C(Nc1ccc3cc(NC(=O)N(C)C4CCN(C(C)C)CC4)ccc3n1)CC2 (racemic) [Example 179, rac-1-(1-Isopropyl-piperidin-4-yl)-3-[2-(7-methoxy-indan-1-ylamino)-quinolin-6-yl]-1-methyl-urea] | 7.1
COc1cccc2c1C(Nc1ccc3cc(NC(=O)NC4CCN(C(C)C)CC4)ccc3n1)CO2 (racemic) [Example 180, rac-1-(1-Isopropyl-piperidin-4-yl)-3-[2-(4-methoxy-2,3-dihydro-benzofuran-3-ylamino)-quinolin-6-yl]-urea] | 2.8
CCOc1cccc2c1C(Nc1ccc3cc(NC(=O)NC4CCN(C(C)C)CC4)ccc3n1)CO2 (racemic) [Example 181, rac-1-[2-(4-Ethoxy-2,3-dihydro-benzofuran-3-ylamino)-quinolin-6-yl]-3-(1-isopropyl-piperidin-4-yl)-urea] | 4.1

Source: US8183380B2, “2-aminoquinolines” (Hoffmann-La Roche Inc., priority 2008, dated 2012)
